Laboratory results from US20240307426A1, “USE OF SGLT-2 INHIBITORS FOR THE PREVENTION AND/OR TREATMENT OF RENAL DISEASES IN NON-HUMAN MAMMALS” (BOEHRINGER INGELHEIM VETMEDICA GMBH, priority 2021, published 2024).

Assays:
[1] = tested on: client owned dogs with CKD (IRIS stage 3); assay: Exploratory clinical field study - dogs (Example 2); assay type: in vivo, dog; settings: CKD IRIS stage 3, 0.3 mg/kg bodyweight orally once daily
Description: (§1) Client owned patients diagnosed with CKD (IRIS stage 3) diagnosed via physical examination and biomarker levels are orally treated once daily with velagliflozin 0.3 mg/kg bodyweight. During the study period the body weight, body condition score, biomarker levels (creatinine and SDMA), proteinuria, presence of concomitant conditions and need for further medication are examined on regular basis during the visits at the site by the investigator. The parameters examined are creatinine and SDMA levels, proteinuria, blood pressure and hydration status. Additionally, variables as the delayed onset of renal failure, survival time of the dog patients, IRiS stage progression and renal related mortality and/or morbidity are observed.

[2] = tested on: client owned cats with CKD (IRIS stage 3); assay: Exploratory clinical field study - cats (Example 1); assay type: in vivo, cat; settings: CKD IRIS stage 3, 0.1 mg/kg bodyweight orally once daily
Description: as §1, with “0.1” for “0.3”, “SDMA),” for “SDMA), proteinuria,”, “pressure, quality of life,” for “pressure”, “cat” for “dog”

## N#Cc1ccc([C@@H]2O[C@H](CO)[C@@H](O)[C@H](O)[C@H]2O)cc1Cc1ccc(C2CC2)cc1 [velagliflozin, Velagliflozin]
[1]
  effect on renal function: beneficial effect on renal function
  progression of the disease: delay in progression of the disease
[2]
  effect on renal function: beneficial effect on renal function
  progression of the disease: delay in progression of the disease
